Values after ≈ are worked out from the molar mass of the structure shown. Like-named read-outs stand apart in the source and are kept apart here.
Tests used:
Format in all cases: cell-based
[1] = test system: Enterococcus faecalis 848 (VRE, Van A); experiment: MIC by broth microdilution, EFc 848
Procedure: (§1) Antibacterial activity in vitro is investigated by broth microdilution method in Meuller-Hinton broth as recommended by NCCLS. All strains tested are clinical isolates either sensitive or resistant to natural glycopeptides. MIC values were determined using the CLSI-recommended broth microdilution procedure (Clinical and Laboratory Standards Institute, Methods for Dilution Antimicrobial Susceptibility Tests for Bacteria That Grow Aerobically; Approved Standard-Seventh Edition.). Automated liquid handlers (Multidrop 384, Labsystems, Helsinki, Finland; Biomek 2000 and Multimek 96, Beckman Coulter, Fullerton Calif.) were used to conduct serial dilutions and liquid transfers. The MIC value for vancomycin is given for comparison. The abbreviations for organisms tested are as follow: SA 100—Staphylococcus aureus 100 (ATCC 29213); SA 757—Staphylococcus aureus 757 (MRSA); SA 2012—Staphylococcus aureus 2012 (VISA); SE 835—Staphylococcus epidermidis 835; SE 831—Staphylococcus epidermidis 831 (MRSE); EFc 101—Enterococcus faecalis 101 (ATCC 29212); EFc 848—Enterococcus faecalis 848 (VRE, Van A); EFcm 800—Enterococcus faecium 800; EFcm 752—Enterococcus faecium 752 (VRE, Van A); SPNE 1195—Streptococcus pneumoniae 1195 (ATCC 49619); SPY 712—Streptococcus pyogenes 712.

[2] = test system: Staphylococcus aureus 2012 (VISA); experiment: MIC by broth microdilution, SA 2012
Procedure: as §1

[3] = test system: Enterococcus faecium 752 (VRE, Van A); experiment: MIC by broth microdilution, EFcm 752
Procedure: as §1

Enterococcus faecium 800 = experiment: MIC by broth microdilution, EFcm 800
Procedure: as §1

[4] = test system: Staphylococcus aureus 757 (MRSA); experiment: MIC by broth microdilution, SA 757; conditions: read-out: MIC SA 757
Procedure: as §1

[5] = test system: Staphylococcus epidermidis 831 (MRSE); experiment: MIC by broth microdilution, SE 831; conditions: read-out: MIC SE 831
Procedure: as §1

[6] = test system: Streptococcus pyogenes 712; experiment: MIC by broth microdilution, SPY 712
Procedure: as §1

[7] = test system: Staphylococcus aureus 100 (ATCC 29213); experiment: MIC by broth microdilution, SA 100
Procedure: as §1

[8] = test system: Enterococcus faecalis 101 (ATCC 29212); experiment: MIC by broth microdilution, EFc 101
Procedure: as §1

[9] = test system: Staphylococcus epidermidis 835; experiment: MIC by broth microdilution, SE 835
Procedure: as §1

[10] = test system: Streptococcus pneumoniae 1195 (ATCC 49619); experiment: MIC by broth microdilution, SPNE 1195
Procedure: as §1

[11] = Enterococcus faecalis, VRE, read-out: MIC E FC 848, Enterococcus faecalis 848 (VRE, Van A), class symbols
[12] = Staphylococcus aureus, VISA, read-out: MIC SA 2012, Staphylococcus aureus 2012 (VISA), class symbols
[13] = Enterococcus faecium, VRE, read-out: MIC E FCM 752, Enterococcus faecium 752 (VRE, Van A), class symbols
[14] = Enterococcus faecium, 800, read-out: MIC E FCM 800
[15] = Staphylococcus epidermidis, MRSE
[16] = Streptococcus pyogenes, 712, read-out: MIC S PYO 712
[17] = Staphylococcus aureus, ATCC29213, read-out: MIC SA 100
[18] = Enterococcus faecalis, ATCC29212, read-out: MIC E FC 101, Enterococcus faecalis 101 (ATCC 29212), class symbols
[19] = Staphylococcus epidermidis, 835, read-out: MIC SE 835
[20] = Streptococcus pneumoniae, ATCC49619, read-out: MIC S PNE 1195

| SMILES | MIC [1, 11] [µg/mL] | MIC [2, 12] [µg/mL] | MIC [3, 13] [µg/mL] | MIC (Enterococcus faecium 800; [14]) [µg/mL] | MIC ([4]; Staphylococcus aureus, MRSA) [µg/mL] | MIC [5, 15] [µg/mL] | MIC [6, 16] [µg/mL] | MIC [7, 17] [µg/mL] | MIC [8, 18] [µg/mL] | MIC [9, 19] [µg/mL] | MIC [10, 20] [µg/mL] | also measured |
| --- | --- | --- | --- | --- | --- | --- | --- | --- | --- | --- | --- | --- |
| CCCCCOc1ccc(S(=O)(=O)NCCCCNC(=O)Oc2cc(O)c3c(c2)[C@@H](C(=O)NC2C4CC5CC(C4)CC2C5)NC(=O)[C@H]2NC(=O)[C@H](NC(=O)[C@@H]4NC(=O)[C@H](CC(N)=O)NC(=O)[C@H](NC(=O)[C@@H](CC(C)C)NC)[C@H](O)c5ccc(c(Cl)c5)Oc5cc4cc(c5O[C@@H]4O[C@H](CO)[C@@H](O)[C@H](O)[C@H]4O[C@H]4C[C@](C)(N)[C@H](O)[C@H](C)O4)Oc4ccc(cc4Cl)[C@H]2O)c2ccc(O)c-3c2)cc1 (stereo partly shown) [Compound 334] | 8 to 16 (≈ 4.16 to 8.32 µM) | 1 to 2 (≈ 0.52 to 1.04 µM) | 0.5 to 1 (≈ 0.26 to 0.52 µM) | 0.01 to 0.5 (≈ 0.0052 to 0.26 µM) | 0.01 to 0.5 (≈ 0.0052 to 0.26 µM) | 0.01 to 0.5 (≈ 0.0052 to 0.26 µM) | 0.01 to 0.5 (≈ 0.0052 to 0.26 µM) | 0.01 to 0.5 (≈ 0.0052 to 0.26 µM) | 0.01 to 0.5 (≈ 0.0052 to 0.26 µM) | 0.01 to 0.5 (≈ 0.0052 to 0.26 µM) | 0.01 to 0.5 (≈ 0.0052 to 0.26 µM) | – |
| CCCCCCCCNC(=O)Oc1cc(O)c2c(c1)[C@@H](C(=O)NC1C3CC4CC(C3)CC1C4)NC(=O)[C@H]1NC(=O)[C@H](NC(=O)[C@@H]3NC(=O)[C@H](CC(N)=O)NC(=O)[C@H](NC(=O)[C@@H](CC(C)C)NC)[C@H](O)c4ccc(c(Cl)c4)Oc4cc3cc(c4OC3OC(CO)C(O)C(O)C3OC3CC(C)(N)C(O)C(C)O3)Oc3ccc(cc3Cl)[C@H]1O)c1ccc(O)c-2c1 (stereo partly shown) [Compound 33] | 2 to 4 (≈ 1.15 to 2.3 µM) | 0.5 to 1 (≈ 0.288 to 0.575 µM) | 0.5 to 1 (≈ 0.288 to 0.575 µM) | 0.01 to 0.5 (≈ 0.00575 to 0.288 µM) | 0.01 to 0.5 (≈ 0.00575 to 0.288 µM) | 0.01 to 0.5 (≈ 0.00575 to 0.288 µM) | 0.01 to 0.5 (≈ 0.00575 to 0.288 µM) | 0.01 to 0.5 (≈ 0.00575 to 0.288 µM) | 0.01 to 0.5 (≈ 0.00575 to 0.288 µM) | 0.01 to 0.5 (≈ 0.00575 to 0.288 µM) | 0.01 to 0.5 (≈ 0.00575 to 0.288 µM) | – |
| CN[C@H](CC(C)C)C(=O)N[C@H]1C(=O)N[C@@H](CC(N)=O)C(=O)N[C@H]2C(=O)N[C@H]3C(=O)N[C@H](C(=O)N[C@H](C(=O)O)c4cc(O)cc(O)c4-c4cc3ccc4O)[C@H](O)c3ccc(c(Cl)c3)Oc3cc2cc(c3O[C@@H]2O[C@H](CO)[C@@H](O)[C@H](O)[C@H]2O[C@H]2C[C@](C)(N)[C@H](O)[C@H](C)O2)Oc2ccc(cc2Cl)[C@H]1O [Vancomycin, vancomycin, reference compound] | – | – | – | 1 (≈ 0.69 µM) | 1 (≈ 0.69 µM) | 2 (≈ 1.38 µM) | 0.5 (≈ 0.345 µM) | 1 (≈ 0.69 µM) | – | 2 (≈ 1.38 µM) | 0.25 (≈ 0.173 µM) | MIC ([1]; Enterococcus faecalis, VRE, read-out: MIC E FC 848, Enterococcus faecalis 848 (VRE, Van A), numeric, comparison): > 64 µg/mL; MIC SA 2012 ([2]; Staphylococcus aureus 2012 (VISA), numeric, comparison): 8 µg/mL (≈ 5.52 µM); MIC ([2]; Staphylococcus aureus, VISA, read-out: MIC SA 2012, Staphylococcus aureus 2012 (VISA), numeric, comparison): 16 µg/mL (≈ 11 µM); MIC ([3]; Enterococcus faecium, VRE, read-out: MIC E FCM 752, Enterococcus faecium 752 (VRE, Van A), numeric, comparison): > 64 µg/mL; MIC E FC 101 ([8]; Enterococcus faecalis 101 (ATCC 29212), numeric, comparison): 4 µg/mL (≈ 2.76 µM); MIC ([8]; Enterococcus faecalis, ATCC29212, read-out: MIC E FC 101, Enterococcus faecalis 101 (ATCC 29212), numeric, comparison): 2 µg/mL (≈ 1.38 µM) |
| CCCCCCc1ccc(S(=O)(=O)NCCCCCCNCc2c(O)cc3c(c2O)-c2cc(ccc2O)[C@H]2NC(=O)[C@@H]4NC(=O)[C@H](CC(N)=O)NC(=O)[C@H](NC(=O)[C@@H](CC(C)C)NC)[C@H](O)c5ccc(c(Cl)c5)Oc5cc4cc(c5O[C@@H]4O[C@H](CO)[C@@H](O)[C@H](O)[C@H]4O[C@H]4C[C@](C)(NC(N)=O)[C@H](OC(N)=O)[C@H](C)O4)Oc4ccc(cc4Cl)[C@@H](O)[C@H](NC2=O)C(=O)N[C@@H]3C(=O)O)cc1 (atropisomer, axis not shown) [Compound 370] | – | – | – | – | – | – | – | – | – | – | – | MIC ([1]; Enterococcus faecalis 848 (VRE, Van A), class symbols, read-out: MIC E FC 848): > 16 µg/mL; MIC ([2]; Staphylococcus aureus 2012 (VISA), class symbols, read-out: MIC SA 2012): 0.01 to 0.5 µg/mL (≈ 0.0053 to 0.265 µM); MIC ([3]; Enterococcus faecium 752 (VRE, Van A), class symbols, read-out: MIC E FCM 752): 4 to 8 µg/mL (≈ 2.12 to 4.24 µM); MIC (Enterococcus faecium 800; Enterococcus faecium 800, class symbols, read-out: MIC E FCM 800): 0.01 to 0.5 µg/mL (≈ 0.0053 to 0.265 µM); MIC ([4]; Staphylococcus aureus 757 (MRSA), class symbols): 0.01 to 0.5 µg/mL (≈ 0.0053 to 0.265 µM); MIC ([5]; Staphylococcus epidermidis 831 (MRSE), class symbols): 0.01 to 0.5 µg/mL (≈ 0.0053 to 0.265 µM); MIC ([6]; Streptococcus pyogenes 712, class symbols, read-out: MIC S PYO 712): 0.01 to 0.5 µg/mL (≈ 0.0053 to 0.265 µM); MIC ([7]; ATCC29213, Staphylococcus aureus 100 (ATCC 29213), class symbols, read-out: MIC SA 100): 0.01 to 0.5 µg/mL (≈ 0.0053 to 0.265 µM); MIC ([8]; ATCC29212, Enterococcus faecalis 101 (ATCC 29212), class symbols, read-out: MIC E FC 101): 0.01 to 0.5 µg/mL (≈ 0.0053 to 0.265 µM); MIC ([9]; Staphylococcus epidermidis 835, class symbols, read-out: MIC SE 835): 0.01 to 0.5 µg/mL (≈ 0.0053 to 0.265 µM); MIC ([10]; ATCC49619, Streptococcus pneumoniae 1195 (ATCC 49619), class symbols, read-out: MIC S PNE 1195): 0.01 to 0.5 µg/mL (≈ 0.0053 to 0.265 µM) |

Reference: patent US20110015119A1, “NOVEL SEMI-SYNTHETIC GLYCOPEPTIDES AS ANTIBACTERIAL AGENTS” (LEAD THERAPEUTICS, INC., priority 2009, published 2011)
